A short description of series [1]: MRC5 cell proliferation counterscreen. As to conditions: human, MRC5 cells, MRC5 EC50, cytotoxicity, human cell line. The class given is cell-based. In general terms: A counterscreen serves to expose hits that act by an unwanted route or on another target.
The test system of the next series is T. brucei. In words: T. brucei cell proliferation assay. In kind it is cell-based, Trypanosoma brucei.
A further series relates to T. cruzi. In words: T. cruzi cell proliferation assay. The class given is cell-based. The following applies: Trypanosoma cruzi, read-out: T. cruzi EC50, mean ± SD; n = 4.

Structures are written as SMILES. Bounds are passed on as bounds.

Take `O=c1nc(-c2ccccc2)c2cc(-c3ccncc3)ccc2[nH]1` [Compound 1]: the EC50 (as a rule, the concentration needed to bring the measured effect to its halfway point) in series [1] was greater than 50 µM. In series [1], `Cc1cc(-c2ccc3[nH]c(=O)nc(-c4ccccc4)c3c2)ccn1` [Compound 5] displayed a concentration giving a half-maximal response (EC50) greater than 50 µM. In the series with T. brucei (relative to 1), the “fold loss of potency in T. brucei assay” value is recorded as less than 3 fold. For `O=c1nc(-c2ccccc2)c2cc(-c3cccnc3)ccc2[nH]1` [Compound 6], in series [1], the half-maximal effective concentration (EC50) is greater than 50 µM.

As to `Cc1ccc(-c2ccc3[nH]c(=O)nc(-c4ccccc4)c3c2)cn1` [Compound 7], the EC50 in series [1] is greater than 50 µM.

In the case of `Cc1ccncc1-c1ccc2[nH]c(=O)nc(-c3ccccc3)c2c1` [Compound 8], the EC50 in series [1] was greater than 50 µM; in the series on T. cruzi, less than 10 µM.

On to `Cc1cncc(-c2ccc3[nH]c(=O)nc(-c4ccccc4)c3c2)c1` [Compound 9], for which the EC50 in series [1] was greater than 50 µM; in the series with T. cruzi, less than 10 µM. In turn, `O=c1nc(-c2ccccc2)c2cc(-c3ccc(C(F)(F)F)nc3)ccc2[nH]1` [Compound 10] displayed a concentration giving a half-maximal response (EC50) in series [1] greater than 50 µM. Same read-out and setting: as for `CN(C)c1ccc(-c2ccc3[nH]c(=O)nc(-c4ccccc4)c3c2)cn1` [Compound 11], the figure is greater than 50 µM. In the case of `O=c1nc(-c2ccccc2)c2cc(-c3ccc(N4CCCC4)nc3)ccc2[nH]1` [Compound 12], the figures for the EC50 (in series [1]; in the series on T. cruzi) were greater than 50 µM and less than 10 µM, respectively. On the same counts, the results for `O=c1nc(-c2ccccc2)c2cc(-c3cnc4ccccc4c3)ccc2[nH]1` [Compound 13] are greater than 50 µM and less than 10 µM. In series [1], `O=c1nc(-c2ccccc2)c2cc(-c3ccccc3)ccc2[nH]1` [Compound 14] showed an EC50 greater than 50 µM. The “fold loss of potency in T. brucei assay” value with T. brucei (relative to 1) is listed as ~ 2.5 fold. `O=c1nc(-c2ccccc2)c2cc(-c3ccccc3F)ccc2[nH]1` [Compound 15]: the EC50 was greater than 50 µM in series [1] and less than 10 µM in the series with T. cruzi. Take `O=c1nc(-c2ccccc2)c2cc(-c3cccc(F)c3)ccc2[nH]1` [Compound 16]: the EC50 is greater than 50 µM in series [1] and less than 10 µM in the series with T. cruzi. Take `O=c1nc(-c2ccccc2)c2cc(-c3ccc(F)cc3)ccc2[nH]1` [Compound 17]: the values for the EC50 (in series [1]; in the series on T. cruzi) were greater than 50 µM and less than 10 µM, respectively.

The molecule `N#Cc1ccc(-c2ccc3[nH]c(=O)nc(-c4ccccc4)c3c2)cc1` [Compound 18] showed an EC50 in series [1] greater than 50 µM. With `CNC(=O)c1cccc(-c2ccc3[nH]c(=O)nc(-c4ccccc4)c3c2)c1` [Compound 19], the EC50 in series [1] was greater than 50 µM. With `O=c1nc(-c2ccccc2)c2cc(-c3cccc(N4CCOCC4)c3)ccc2[nH]1` [Compound 20], the 50% effective concentration (EC50) in series [1] is greater than 50 µM. Consider `O=c1nc(-c2ccccc2)c2cc(-c3ccc(N4CCOCC4)cc3)ccc2[nH]1` [Compound 21], for which the EC50 in the series on T. cruzi was less than 10 µM. Consider `O=c1nc(-c2ccccc2)c2cc(-c3cncnc3)ccc2[nH]1` [Compound 22], for which, in series [1], the EC50 was greater than 50 µM. The same measure, in the same setting: as for `Cc1noc(C)c1-c1ccc2[nH]c(=O)nc(-c3ccccc3)c2c1` [Compound 23], the figure is greater than 50 µM; as for `O=c1nc(-c2ccccc2)c2cc(-c3cc[nH]n3)ccc2[nH]1` [Compound 24], greater than 50 µM.

With `O=c1nc(-c2ccccc2)c2cc(-c3cn[nH]c3)ccc2[nH]1` [Compound 25], the 50% effective concentration (EC50) with T. cruzi was less than 10 µM.

Take `Cn1cc(-c2ccc3[nH]c(=O)nc(-c4ccccc4)c3c2)cn1` [Compound 26]: the concentration for a half-maximal effect (EC50) in series [1] is greater than 50 µM.

With `Cn1nccc1-c1ccc2[nH]c(=O)nc(-c3ccccc3)c2c1` [Compound 27], the EC50 in series [1] is greater than 50 µM.

For `O=c1nc(-c2ccccc2)c2ccc(-c3ccncc3)cc2[nH]1` [Compound 28], the EC50 in series [1] was greater than 50 µM. As to `O=c1nc(-c2ccccc2)c2ccc(-c3cccnc3)cc2[nH]1` [Compound 29], the concentration for a half-maximal effect (EC50) in series [1] was greater than 50 µM. `O=c1nc(-c2ccccc2)c2ccc(-c3cncnc3)cc2[nH]1` [Compound 30]: in series [1], the EC50 is greater than 50 µM. Same read-out and setting: as for `O=c1nc(-c2ccccc2)c2ccc(-c3cccc(N4CCOCC4)c3)cc2[nH]1` [Compound 31], the figure is greater than 50 µM; as for `O=c1nc(-c2ccccc2)c2ccc(-c3ccc(F)cc3)cc2[nH]1` [Compound 32], greater than 50 µM. The same measure, in the same setting: the result for `Cn1ccc(-c2cccc3[nH]c(=O)nc(-c4ccccc4)c23)n1` [Compound 33] reads greater than 50 µM; that for `N#Cc1ccc(-c2cccc3[nH]c(=O)nc(-c4ccccc4)c23)cc1` [Compound 34], greater than 50 µM; that for `Cc1ccc2[nH]c(=O)nc(-c3ccccc3)c2c1` [Compound 35], greater than 50 µM. For the molecule `CN1CCN(c2ccc3[nH]c(=O)nc(-c4ccccc4)c3c2)CC1` [Compound 36], the EC50 in series [1] was greater than 50 µM. `O=c1nc(-c2ccccc2)c2cc(N3CCNCC3)ccc2[nH]1` [Compound 37] registered a concentration giving a half-maximal response (EC50) in series [1] greater than 25 µM. Still for that read-out and setting: as for `O=c1nc(-c2ccccc2)c2cc(N3CCOCC3)ccc2[nH]1` [Compound 38], the figure is greater than 50 µM. Take `Cc1ccccc1-c1nc(=O)[nH]c2ccc(-c3cc[nH]n3)cc12` [Compound 39]: the concentration giving a half-maximal response (EC50) is greater than 50 µM in series [1] and less than 10 µM with T. cruzi. With `COc1ccccc1-c1nc(=O)[nH]c2ccc(-c3cc[nH]n3)cc12` [Compound 40], the concentration giving a half-maximal response (EC50) in series [1] is greater than 50 µM. With `O=c1nc(C2CCCCC2)c2cc(-c3cc[nH]n3)ccc2[nH]1` [Compound 41], the EC50 in series [1] was greater than 50 µM. For `O=c1nc(C2CCC2)c2cc(-c3cc[nH]n3)ccc2[nH]1` [Compound 42], the concentration giving a half-maximal response (EC50) in series [1] was greater than 50 µM. Further, in the series on T. brucei (relative to C4-phenyl analog 24), the “fold loss of potency in T. brucei assay” value is on record as roughly 6 fold.

Source of the values: article PMC6214665 (Bioorganic & medicinal chemistry letters, 2017).
